Measured values published in ChEMBL document CHEMBL5131397, “Discovery and Optimization of Pyrazole Amides as Inhibitors of ELOVL1” (J Med Chem, 2021).

Experiment: Toxicity in Sprague-Dawley rat assessed as reversal of lesions at 5 to 50 mg/kg/day, po administered for 8 weeks and measured after cessation dosing
Format: organism-based
Conditions: in vivo, 1344 h, dose 5-50 mg/kg/day

In the case of O=C(Nc1ccn(-c2ccnc(F)c2)n1)C1(c2ccccc2F)CC1, the Activity is reported as “Non-Toxic”.
